Results as given in article PMC11307993 (ACS Omega, 2024).
“And” between values parts separate entries of the source, which are not always exact repeats. Equal values may be shown once. Each block holds one molecule with its values, some of them ahead of it.

Experiments:
[1] = tested on: acetic acid-induced writhing; test: In vivo analgesic assay, acetic acid-induced writhing method; parameters: species or system Wistar rats; details: for potency: % inhibition of tested compound / % inhibition of reference (celecoxib); for % inhibition (number of writhing) / no. of writhes (mean ± SE): acetic acid-induced writhing
[2] = tested on: rat stomach; test: Gastric ulcerogenic activity; format: in vivo; details: oral 10 mg/kg
[3] = tested on: serum levels of LDH, Tn-I, TNF-α and CK-MB; test: Evaluation of cardiovascular parameters; format: in vivo, rats; details: rat serum, 100 mg/kg oral, 2 weeks
[4] = tested on: carrageenan induced rat paw edema; test: In vivo anti-inflammatory assay, carrageenan-induced paw edema; details: 2 mg/kg oral; for % of edema inhibition 1 h: 1 h after carrageenan injection; for % of edema inhibition 3 h: 3 h after carrageenan injection; for % of edema inhibition 5 h: 5 h after carrageenan injection
[5] = molecular target: T1, COX-2 (Homo sapiens, UniProt P35354); test: biochemical; format: biochemical; details: for SI (selectivity index): IC50 (COX-1)/IC50 (COX-2); for fold less potent than compound 8o against COX-2: ratio of COX-2 IC50 values
T1 sequence (P35354 18-604): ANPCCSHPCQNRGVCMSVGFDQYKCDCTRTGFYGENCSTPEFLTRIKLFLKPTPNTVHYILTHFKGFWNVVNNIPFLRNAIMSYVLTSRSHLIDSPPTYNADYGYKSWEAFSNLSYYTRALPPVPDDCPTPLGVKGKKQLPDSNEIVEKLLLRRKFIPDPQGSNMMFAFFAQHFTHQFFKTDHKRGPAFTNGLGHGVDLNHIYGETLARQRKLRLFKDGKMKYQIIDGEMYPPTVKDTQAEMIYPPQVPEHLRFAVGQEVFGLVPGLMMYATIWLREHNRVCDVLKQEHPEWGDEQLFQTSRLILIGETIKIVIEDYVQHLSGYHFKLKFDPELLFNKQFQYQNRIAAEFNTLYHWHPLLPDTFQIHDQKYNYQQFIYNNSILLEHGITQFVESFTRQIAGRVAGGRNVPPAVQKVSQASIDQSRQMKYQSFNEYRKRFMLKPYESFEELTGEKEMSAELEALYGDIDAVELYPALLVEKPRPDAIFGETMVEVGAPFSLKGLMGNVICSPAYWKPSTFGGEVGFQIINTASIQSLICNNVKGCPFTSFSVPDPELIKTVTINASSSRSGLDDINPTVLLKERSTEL

[6] = molecular target: T2, sEH (Homo sapiens, UniProt P34913); test: In vitro sEH inhibition assay; format: biochemical; details: sEH (IC50, nM)
T2 sequence (P34913 1-555): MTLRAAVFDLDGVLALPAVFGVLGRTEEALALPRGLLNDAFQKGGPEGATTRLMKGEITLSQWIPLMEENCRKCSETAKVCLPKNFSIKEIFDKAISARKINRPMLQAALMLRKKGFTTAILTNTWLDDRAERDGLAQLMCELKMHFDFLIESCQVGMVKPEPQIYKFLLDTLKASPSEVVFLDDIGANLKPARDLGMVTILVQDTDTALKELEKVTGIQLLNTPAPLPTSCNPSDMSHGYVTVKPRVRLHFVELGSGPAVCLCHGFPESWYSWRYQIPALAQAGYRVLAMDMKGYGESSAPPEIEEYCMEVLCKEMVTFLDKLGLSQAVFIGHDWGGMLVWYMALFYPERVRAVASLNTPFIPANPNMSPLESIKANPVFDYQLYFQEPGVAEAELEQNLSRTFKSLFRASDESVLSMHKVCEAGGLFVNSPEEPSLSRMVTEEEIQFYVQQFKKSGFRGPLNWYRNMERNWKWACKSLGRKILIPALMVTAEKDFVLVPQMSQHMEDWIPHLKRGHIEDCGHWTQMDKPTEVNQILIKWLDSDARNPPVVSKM

[7] = tested on: 5-LOX; details: read-out: 5-LOX (IC50)
[8] = cited from earlier work

SMILES: Cc1ccc(-c2cc(C(F)(F)F)nn2-c2ccc(S(N)(=O)=O)cc2)cc1 [Celecoxib, reference compound]
- potency [1]: 1.00
- % inhibition (number of writhing) [1]: 13.5%
- no. of writhes (mean ± SE) [1]: 29.00 ± 0.70
- % inhibition (number of writhing) ([1]; listed as celecoxib): 13.50%
- score: no. of gastric ulcers [2]: 2.5 ± 0.10
- score: severity lesions [2]: 5.80 ± 0.20
- CK-MB (IU/L) [3]: 96 ± 04 IU/L
- LDH (IU/L) [3]: 2100 ± 90 IU/L
- troponin-I [3]: 340 ± 10 pg/mL
- % of edema inhibition 1 h [4]: 40%
- % of edema inhibition 3 h [4]: 54%
- % of edema inhibition 5 h [4]: 22%

SMILES: N#CC1=C(N)n2c(nnc2-c2ccccc2)NC1c1ccccc1 (centres unmarked) [Compound 8a, 5-Amino-7,8-dihydro-3,7-diphenyl-[1,2,4]triazolo[4,3-a]pyrimidine-6-carbonitrile]
- IC50 [5]: 21.7 µM
- SI (selectivity index) [5]: 10

SMILES: Cc1ccc(C2Nc3nnc(-c4ccccc4)n3C(N)=C2C#N)cc1 (centres unmarked) [Compound 8d, 5-Amino-7,8-dihydro-3-phenyl-7-p-tolyl-[1,2,4]triazolo[4,3-a]pyrimidine-6-carbonitrile]
- IC50 [5]: 46.9 µM
- SI (selectivity index) [5]: 6

SMILES: COc1ccc(C2Nc3nnc(-c4ccccc4)n3C(N)=C2C#N)cc1 (centres unmarked) [Compound 8e, 5-Amino-7,8-dihydro-7-(4-methoxyphenyl)-3-phenyl-[1,2,4]triazolo[4,3-a]pyrimidine-6-carbonitrile]
- IC50 [5]: 29.7 µM
- SI (selectivity index) [5]: 8
- fold less potent than compound 8o against COX-2 [5]: 2.8 fold

SMILES: N#CC1=C(N)n2c(nnc2-c2ccncc2)NC1c1ccccc1 (centres unmarked) [Compound 8f, 5-Amino-7,8-dihydro-7-phenyl-3-(pyridin-4-yl)-[1,2,4]triazolo[4,3-a]pyrimidine-6-carbonitrile]
- IC50 [5]: 51.5 µM
- SI (selectivity index) [5]: 6

SMILES: COc1ccc(C2Nc3nnc(-c4ccncc4)n3C(N)=C2C#N)cc1 (centres unmarked) [Compound 8j, 5-Amino-7,8-dihydro-7-(4-methoxyphenyl)-3-(pyridin-4-yl)-[1,2,4]-triazolo[4,3-a]pyrimidine-6-carbonitrile]
- IC50 [5]: 42.7 µM
- SI (selectivity index) [5]: 7
- fold less potent than compound 8o against COX-2 [5]: 4 fold

SMILES: N#CC1=C(N)n2c(nnc2-c2cccnc2)NC1c1ccccc1 (centres unmarked) [Compound 8k, 5-Amino-7,8-dihydro-7-phenyl-3-(pyridin-3-yl)-[1,2,4]triazolo[4,3-a]pyrimidine-6-carbonitrile]
- IC50 [5]: 37.5 µM
- SI (selectivity index) [5]: 8
- fold less potent than compound 8o against COX-2 [5]: 3.5 fold

SMILES: N#CC1=C(N)n2c(nnc2-c2cccnc2)NC1c1ccc(Br)cc1 (centres unmarked) [Compound 8l, 5-Amino-7-(4-bromophenyl)-7,8-dihydro-3-(pyridin-3-yl)-[1,2,4]triazolo [4,3-a]pyrimidine-6-carbonitrile]
- IC50 [5]: 53.7 µM
- SI (selectivity index) [5]: 4

SMILES: N#CC1=C(N)n2c(nnc2-c2cccnc2)NC1c1ccc(Cl)cc1 (centres unmarked) [Compound 8m, 5-Amino-7-(4-chlorophenyl)-7,8-dihydro-3-(pyridin-3-yl)-[1,2,4]triazolo [4,3-a]pyrimidine-6-carbonitrile]
- IC50 [5]: 11.6 µM
- SI (selectivity index) [5]: 20
- IC50 [6]: 2.95 ± 0.08 nM
- potency [1]: 3
- % inhibition (number of writhing) [1]: 41%
- no. of writhes (mean ± SE) [1]: 19.00 ± 0.60
- CK-MB (IU/L) [3]: 20 ± 02 IU/L
- LDH (IU/L) [3]: 1485 ± 60 IU/L
- troponin-I [3]: 128 ± 06 pg/mL
- IC50 [7]: 2.9 µM and 3.05 µM
- % of edema inhibition 1 h [4]: 32%
- % of edema inhibition 3 h [4]: 59%
- % of edema inhibition 5 h [4]: 70%

SMILES: Cc1ccc(C2Nc3nnc(-c4cccnc4)n3C(N)=C2C#N)cc1 (centres unmarked) [Compound 8n, 5-Amino-7,8-dihydro-3-(pyridin-3-yl)-7-p-tolyl-[1,2,4]triazolo[4,3-a]pyrimidine-6-carbonitrile]
- IC50 [5]: 21.9 µM
- SI (selectivity index) [5]: 10

- IC50 [6]: 2.1 ± 0.07 nM
- IC50 [7]: 3.05 µM
SMILES: COc1ccc(C2Nc3nnc(-c4cccnc4)n3C(N)=C2C#N)cc1 (centres unmarked) [Compound 8o, 5-Amino-7,8-dihydro-7-(4-methoxyphenyl)-3-(pyridin-3-yl)-[1,2,4] triazolo[4,3-a]pyrimidine-6-carbonitrile]
- potency [1]: 3.5
- % inhibition (number of writhing) [1]: 47% and 47.50%
- no. of writhes (mean ± SE) [1]: 15.00 ± 0.50
- score: no. of gastric ulcers [2]: 0
- score: severity lesions [2]: 0
- ulceration in the isolated rat stomach (observation) [2]: no ulceration
- CK-MB (IU/L) [3]: 17 ± 01 IU/L
- LDH (IU/L) [3]: 1390 ± 50 IU/L
- troponin-I [3]: 107 ± 05 pg/mL
- % of edema inhibition 1 h [4]: 37%
- % of edema inhibition 3 h [4]: 61%
- % of edema inhibition 5 h [4]: 73%

SMILES: CC(C)Cc1ccc(C(C)C(=O)O)cc1 (centres unmarked) [ibuprofen]
- ulcer index [8]: 21.26

SMILES: COc1ccc2c(c1)c(CC(=O)O)c(C)n2C(=O)c1ccc(Cl)cc1 [indomethacin]
- score: no. of gastric ulcers [2]: 8.5 ± 0.40
- score: severity lesions [2]: 12.50 ± 0.70
